Experiment [1] relates to incisional and excisional wounds. Particulars: topical application; diabetic and non-diabetic rats; cited from earlier work.
The next experiment addresses Tyrosinase (Agaricus bisporus, UniProt C7FF04). Put plainly: In vitro assay of tyrosinase activity (DOPAchrome). The experiment is classed as biochemical. The method, then: The tyrosinase inhibitory activity was measured from the following equation: inhibitory activity (%) = (1 − A/B) × 100, (9) where A and B are the absorbance of the mixture in presence or absence of test flavonoid, respectively. Every experiment was done in triplicate.

The next experiment deals with Xanthine oxidase (Homo sapiens, UniProt P47989). Put plainly: In vitro assay of xanthine oxidase activity. The experiment is classed as biochemical. The conditions noted are these: for IC50: ± SD, triplicate. The method, then: Xanthine oxidase (XO) inhibitory potential was carried out according to the previously described method. The color produced because of hydrogen peroxide release during the process of oxidation of XO was measured at 570 nm using the plate reader EPOCH™ “MICROPLATE READER (BIOTEK)”. Forty-four microliters of xanthine oxidase buffer were mixed with 2 µL of xanthine substrate solution and 2 µL of XO. […] was applied as a positive control. This experiment was performed in triplicate.
Sequence of Xanthine oxidase (P47989 whole entry, species assumed): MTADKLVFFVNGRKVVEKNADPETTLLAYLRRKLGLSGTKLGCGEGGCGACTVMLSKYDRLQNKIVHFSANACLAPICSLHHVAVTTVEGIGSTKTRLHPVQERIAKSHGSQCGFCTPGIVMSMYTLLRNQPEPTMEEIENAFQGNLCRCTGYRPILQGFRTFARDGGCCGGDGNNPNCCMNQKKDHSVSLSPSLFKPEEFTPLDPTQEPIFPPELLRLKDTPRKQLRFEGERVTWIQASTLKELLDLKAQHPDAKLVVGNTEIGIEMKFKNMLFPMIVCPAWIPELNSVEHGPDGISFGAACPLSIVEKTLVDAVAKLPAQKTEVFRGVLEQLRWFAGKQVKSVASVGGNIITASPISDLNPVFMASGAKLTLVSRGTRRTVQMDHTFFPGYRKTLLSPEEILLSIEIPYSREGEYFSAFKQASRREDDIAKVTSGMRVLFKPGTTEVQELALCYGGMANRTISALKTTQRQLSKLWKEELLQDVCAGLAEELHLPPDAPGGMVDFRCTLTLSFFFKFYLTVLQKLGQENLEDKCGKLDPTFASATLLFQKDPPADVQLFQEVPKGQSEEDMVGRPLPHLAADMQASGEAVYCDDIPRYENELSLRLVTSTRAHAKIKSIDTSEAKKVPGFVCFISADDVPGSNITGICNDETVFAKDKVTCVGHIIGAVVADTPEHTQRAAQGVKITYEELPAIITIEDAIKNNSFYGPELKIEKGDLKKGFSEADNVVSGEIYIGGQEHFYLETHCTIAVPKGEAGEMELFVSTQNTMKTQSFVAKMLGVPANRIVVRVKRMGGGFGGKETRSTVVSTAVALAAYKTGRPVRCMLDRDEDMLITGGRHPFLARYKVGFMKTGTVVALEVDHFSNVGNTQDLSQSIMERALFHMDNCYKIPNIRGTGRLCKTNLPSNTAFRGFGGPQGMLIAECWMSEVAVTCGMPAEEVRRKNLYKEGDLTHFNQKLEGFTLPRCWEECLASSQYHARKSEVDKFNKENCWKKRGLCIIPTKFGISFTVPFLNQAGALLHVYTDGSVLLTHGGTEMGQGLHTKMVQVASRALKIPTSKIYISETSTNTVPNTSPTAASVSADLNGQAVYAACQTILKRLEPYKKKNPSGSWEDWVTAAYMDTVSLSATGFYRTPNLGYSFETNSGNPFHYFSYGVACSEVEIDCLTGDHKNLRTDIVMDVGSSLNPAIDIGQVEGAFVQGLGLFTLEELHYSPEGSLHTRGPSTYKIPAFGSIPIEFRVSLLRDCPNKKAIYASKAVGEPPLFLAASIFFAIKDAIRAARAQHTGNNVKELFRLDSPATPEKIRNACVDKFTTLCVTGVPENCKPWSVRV

A further experiment relates to wound healing. Details: method as in PMID 28989011. Particulars: cited from earlier work.
The subject of the next experiment is cutaneous wound healing. Details: method as in PMID 20193736. The conditions noted are these: cited from earlier work.
The test system of experiment [2] is tissue transglutaminase-2, TGF-1, and vascular endothelial growth factor. The arrangement: method as in PMID 20590611. Particulars: sham OVX rats; cited from earlier work.
The subject of a further experiment is injured skin. Particulars: cited from earlier work.

Sequence of Tyrosinase (C7FF04 1-392): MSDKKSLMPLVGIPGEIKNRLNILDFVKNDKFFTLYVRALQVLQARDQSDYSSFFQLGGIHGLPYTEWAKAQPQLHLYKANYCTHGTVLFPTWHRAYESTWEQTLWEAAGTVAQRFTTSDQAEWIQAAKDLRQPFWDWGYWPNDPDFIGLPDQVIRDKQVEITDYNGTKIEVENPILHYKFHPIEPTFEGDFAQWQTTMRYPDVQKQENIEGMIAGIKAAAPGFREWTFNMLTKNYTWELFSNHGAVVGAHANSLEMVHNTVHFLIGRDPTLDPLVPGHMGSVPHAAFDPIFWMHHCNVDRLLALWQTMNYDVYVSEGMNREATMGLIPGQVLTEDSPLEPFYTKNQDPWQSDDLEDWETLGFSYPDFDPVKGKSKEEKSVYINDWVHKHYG

As for `O=c1c(O)c(-c2ccc(O)cc2)oc2cc(O)cc(O)c12` [Compound 1, kaempferol], in experiment [1], the wound healing effect entry was “healing effects”. For the molecule `O=c1c(O)c(-c2ccc(O[C@@H]3O[C@H](CO)[C@@H](O)[C@H](O)[C@H]3O)cc2)oc2cc(O)cc(O)c12` [Compound 2, kaempferol-4′-O-β-D-glucopyranoside], the “activity against tyrosinase (in words)” value at Tyrosinase is “inactive or weakly active”. Further, at Xanthine oxidase, the “activity against xanthine oxidase (in words)” value is recorded as “weak or inactivity” and the IC50 (as a rule, the concentration that inhibits the measured activity by half) was 73.7 ± 2.33 µM. Regarding `O=c1c(O)c(-c2ccc(O)cc2)oc2cc(O[C@@H]3O[C@H](CO)[C@@H](O)[C@H](O)[C@H]3O)cc(O)c12` [Compound 3, kaempferol-7-O-β-D-glucopyranoside], on Tyrosinase, the “activity against tyrosinase (in words)” value was “inactive or weakly active”. Besides, half-maximal inhibition against Xanthine oxidase (IC50) required 6.39 ± 0.36 µM.

`O=c1c(-c2ccc(O)cc2)c(O)oc2cc(O)cc(O)c12` [Compound 4, 2-hydroxygenistein]: in the experiment with wound healing, the wound healing entry is “promote wound healing”. As to `COc1ccc([C@@H]2CC(=O)c3c(O)cc(O)cc3O2)cc1O` [Compound 5, hesperetin], at Xanthine oxidase, the “activity against xanthine oxidase (in words)” value is reported as “weak or inactivity” and the IC50 was more than 100 µM. As for `O=c1c(-c2ccc(O)cc2)coc2cc(O)cc(O)c12` [Genistein], the wound healing result in the experiment on cutaneous wound healing is listed as “accelerated wound healing”. The “effect on tissue transglutaminase-2, TGF-1 and vascular endothelial growth factor” value in experiment [2] is “reduced tissue transglutaminase-2, TGF-1, and vascular endothelial growth factor”. `COc1ccc([C@@H]2CC(=O)c3c(O)cc(O[C@@H]4O[C@H](CO[C@@H]5O[C@@H](C)[C@H](O)[C@@H](O)[C@H]5O)[C@@H](O)[C@H](O)[C@H]4O)cc3O2)cc1O` [Hesperidin]: the “healing of injured skin” value in the experiment on injured skin is on record as “sufficient healing benefits on injured skin”. On to `N[C@@H](Cn1ccc(=O)c(O)c1)C(=O)O` [L-mimosine, reference compound], for which the IC50 at Xanthine oxidase turned out to be 3.63 ± 0.18 µM.

The record behind these values is article PMC9138151, “Bioactive Phytochemicals of Citrus reticulata Seeds—An Example of Waste Product Rich in Healthy Skin Promoting Agents” (Antioxidants, 2022).
